Measurements as given in patent publication US20240016766A1, “PHARMACEUTICAL COMPOSITION FOR TREATMENT OF INNER EAR DISORDERS THROUGH LOCAL ADMINISTRATION IN THE TYMPANIC AREA” (priority 2020, published 2024).

Assays:
[1] = Pharmacokinetics after single ear canal administration: concentration in perilymph (Examples 1 and 2)
Description: Pharmacokinetics study of different active agents has been conducted with ready-to-use formulations. The pharmacokinetic study consists of a single administration up to the eardrum on male Long Evans rats and assessment of the level of the active agent in middle ear area (tympanic bulla) and in the inner ear area (perilymph).
2. Route of administration: 20 μl of each formulation are delivered in the ear canal of one animal in one administration.
3. Animals: 6 male rats Long Evans, were obtained from Janvier Labs, Le Genest St Isle, 53941 St Berthevin, France. Acclimation Animals arrived on site at least 5 days before the experiment to allow optimal acclimation. Selection Animal health was examined on the day before starting the study, to ensure that only animals in good health were selected to enter the testing procedures. Identification: At the beginning of the study, animals were identified with a number on the tail. Each cage was labelled with a record card, indicating the test compound, the dose of administration and the identification of the animals Housing: Rats were housed in cages (1354G (Tecniplast, Lyon), dim 595*380 mm (w*d)), in a room where the air was continuously filtered, thereby avoiding any contamination. During experiments, rats were caged in groups of five (300-400 g) at a constant temperature with a day/night cycle of 12/12 hours. Animals received water (autoclaved water) and nutrition (ref A04C10), ad libitum.
4. Treatment and study design: The treatment was delivered into the ear canal and on the tympanic membrane on anesthetized rats (2.5% isoflurane). The exact volume of administration was determined during this first test and delivered (volume of 20 μL). Both ears were treated. After administration, the animal was kept on a heating pad for 5 minutes, positioned on its side to allow the compound to diffuse through the tympanic membrane. Then the second ear were administered, and the animal kept on its side for 5 minutes. Finally, the animal was kept on a ventral position until its recovery from anesthesia. The diffusion trough the tympanic membrane and into the inner ear and was assessed with the dosage of the perilymph sampling. Tympanic bulla sampling technique: After sacrifice of the rats, the right tympanic bulla was collected from each animal and transferred to an Eppendorf tube, weighed individually and frozen at −20° C. until analysis. Perilymph sampling technique: After sacrifice of the rats and extraction of the tympanic bulla from the left ear, a volume of about 1 μL of cochlear fluid at the base of the cochlea was sampled ex vivo. Tubes were weighed individually before and after sampling, and immediately transferred to a −20° C. freezer.
5. Bioanalysis: The concentration of each compound in the perilymph and in the tympanic bulla was quantified using an exploratory LC/MS-MS assay method in outsourcing laboratory (Eurofins Vergeze, France). The concentration of amitriptyline in plasma was assessed.
The same materials and methods were used as in Example 1.

[2] = Further pharmacokinetics study, apricot oil formulations: concentration in perilymph (Example 3); format: in vivo, male Long Evans rats
Description: Apricot oil is present in the formulation as a solubilizing agent. α-(-)-bisabolol is used as diffusing agent. […] 2. […] 3. […] 4. […] Both ears were treated. […] 5. […]

[3] = Pharmacokinetics after single ear canal administration: concentration in plasma; format: in vivo, male Long Evans rats; settings: from 1 to 8 hours after administration
Description: 2. […] 3. […] Animals received water (autoclaved water) and nutrition (ref […]), ad libitum. 4. […] Both ears were treated. […] Perilymph sampling technique: […] […] 5. […] The concentration of amitriptyline in plasma was assessed.

[4] = after 8 hours from the administration onto the tympanic membrane, Example 1 conclusion
[5] = after 8 hours from the administration onto the tympanic membrane, Example 3 conclusion

| SMILES | Presence within the inner ear (perilymph) [1, 4] | Presence within the inner ear (perilymph) ([1]; rat, in vivo) | also measured |
| --- | --- | --- | --- |
| C=C(C)[C@@H]1CCC(C)=C[C@H]1c1c(O)cc(CCCCC)cc1O [cannabidiol] | present |  |  |
| COc1ccc2c(c1)[C@]13CCCC[C@@H]1[C@H](C2)N(C)CC3 [dextromethorphan] | present |  |  |
| O=c1cc(-c2ccccc2)oc2c(O)c(O)ccc12 [7,8-dihydroxyflavone] |  | present | Presence within the inner ear (perilymph) ([2]; rat, in vivo): present |
| CCCN[C@H]1CCc2nc(N)sc2C1 [pramipexole] |  | present |  |
| CCN(CC)CC(=O)Nc1c(C)cccc1C [lidocaine] |  |  | Presence within the inner ear (perilymph) [2, 5]: present |
| CN(C)CCC=C1c2ccccc2CCc2ccccc21 [amitriptyline] |  | present | Presence in plasma [3]: present in plasma |
| CC(C)c1cc2[nH]c(=O)n(NS(C)(=O)=O)c(=O)c2cc1-c1ccnn1C [selurampanel] | present |  |  |
| CCCN(CCC)CCc1cccc2c1CC(=O)N2 [ropinirole] |  | present |  |
| C[C@@H]1C[C@H]2[C@@H]3CCC4=CC(=O)C=C[C@]4(C)[C@@]3(F)[C@@H](O)C[C@]2(C)[C@@]1(O)C(=O)CO [dexamethasone] |  | present | Presence within the inner ear (perilymph) [2, 5]: present |
| CC1CCCCC1(c1cccs1)N1CCCCC1 (stereo not shown) [gacyclidine] | present |  |  |
